The CC50 is the concentration that lowers cell viability or growth by half. In general, kinetic solubility refers to the concentration staying in solution when a stock, usually in DMSO, is diluted into the medium.

This is an account of results in US20230303599A1, “PRODRUGS OF PHOSPHONAMIDE NUCLEOTIDE ANALOGUES AND THEIR PHARMACEUTICAL USE” (priority 2020, published 2023).

Data set [1] is described as follows: Cytotoxicity assay in MT-4 cells. The following applies: human, uninfected MT-4 cells, average of at least two independent experiments, read-out: MT4 CC50. It counts as cell-based. The method, then:
Compounds were tested in a high-throughput 384-well assay format for their ability to inhibit the replication of HIV-1 (IIIB) in MT-4 cells. Compounds were serially diluted (1:3) in DMSO on 384-well polypropylene plates and further diluted 200-fold into complete RPMI media (10% FBS, 1% P/S) using the Biotek Micro Flow and Labcyte ECHO acoustic dispenser. Each plate contained up to 8 test compounds, with negative (no drug) and positive (5 μM AZT) controls. MT-4 cells were pre-treated with 10 μL of either RPMI (mock-infected) or a fresh 1:250 dilution of HIV-1 IIIB concentrated virus stock. Infected and uninfected MT-4 cells were further diluted in complete RPMI media and added to each plate using a Micro Flow dispenser. After 5 days incubation in a humidified and temperature-controlled incubator (37° C.), Cell Titer Glo (Promega) was added to the assay plates and chemiluminescence read using an Envision plate-reader. EC50 values were defined as the compound concentration that causes a 50% decrease in luminescence signal and were calculated using a sigmoidal dose-response model to generate curve fits and are shown in Table 1.
Example 105: Cytotoxicity Assay in MT-4 Cells
Assays were performed as described in Example 104 except uninfected MT-4 cells were added to each well containing test compound. In addition, 10 μM puromycin was added to the last column of each assay plate to assess a base level of cytotoxicity.

A short description of data set [2]: Cytotoxicity assay in primary human hepatocytes (PHHs). Format: cell-based. The following applies: HBV-infected primary human hepatocytes, HBV-infected PHH, Cell Titer Glo, average of at least two independent experiments. The protocol:
Example 107: Cytotoxicity Assay in Primary Human Hepatocytes (PHHs)
The HBV-infected primary human hepatocytes are seeded (20K cells/well in 80 uL of Media) in 384well collagen coated plates pre-spotted with compounds. After 5 days, 40 ul of cell supernatant is removed to quantify HBV DNA levels as described in Example 106. Then, 40 ul Cell Titer Glo Reagent (Promega Catalog Number: G7572) is added to the remaining cells and luminescence is measured on the EnVision microplate reader.

The nature of data set [3]: Kinetic solubility analysis. Format: physicochemical. Particulars: 1× PBS, 24.2 °C, aqueous buffer, kinetic from dmso stock; pH 7.4 PBS, 1% DMSO, 24-hour incubation at ambient temperature. The protocol: Example 108: Kinetic Solubility Analysis
Buffer Preparation: 0.1 N HCl: Hydrochloric acid, 0.1 N standardized solution (MP Biomedicals part number 199569). 1×PBS, pH 7.4: Phosphate Buffered Saline (PBS) solution 10× (Fisher Bioreagent part number BP399-500) 50 mL was added to approximately 450 mL HPLC grade H2O. The volume of the solution was then adjusted to 500 mL for a total dilution factor of 1:10 and a final PBS concentration of 1×.
The final DMSO concentration was 1.0% (v/v) and maximum theoretical compound concentration is 100 μM (for compound stock concentration of 10 mM). The filter plate was sealed. Following 24-hour incubation at ambient temperature (24.2-27.5° C.), the samples were vacuum filtered and the filtrates were collected in a 96 well polypropylene plate for analysis. The collection plate was sealed for analysis. Filtrates were injected into the Antek 8060 chemiluminescent nitrogen detector for quantification. The results are reported in μM.
The filtrates were quantified with respect to this calibration curve. Each calculated solubility value was corrected for background nitrogen present in the DMSO and in the medium used to prepare the sample. All reported values for compounds containing adjacent nitrogen atoms in a ring structure were increased by approximately 25%.

≈ marks a conversion by molar mass, not a printed value.

As for `C[C@H](Cn1cnc2c(N)ncnc21)OCP(=O)(NC(C)(C)C(=O)OCc1ccccc1)NC(C)(C)C(=O)OCc1ccccc1` [Example 3, Dibenzyl 2,2′-(((((1-(6-amino-9H-purin-9-yl)propan-2-yl)oxy)methyl)phosphoryl)bis(azanediyl))(R)-bis(2-methylpropanoate)], the 50% cytotoxic concentration (CC50) at 5 days in data set [1] was 4.46 µM; in data set [2] it was more than 0.1 µM. In data set [3], this molecule displayed a solubility (kinetic) at 24 h of 50 µg/mL (≈ 78.4 µM).

On to `CCCCCOC(=O)C(C)(C)NP(=O)(CO[C@H](C)Cn1cnc2c(N)ncnc21)NC(C)(C)C(=O)OCCCCC` [Example 4, Dipentyl 2,2′-(((((1-(6-amino-9H-purin-9-yl)propan-2-yl)oxy)methyl)phosphoryl)bis(azanediyl))(R)-bis(2-methylpropanoate)], for which the CC50 at 5 days in data set [1] was 8.42 µM; in data set [2], more than 0.1 µM. The solubility (kinetic) at 24 h in data set [3] was determined as 53 µg/mL (≈ 88.7 µM).

The molecule `CCC[C@H]1CC[C@H](OC(=O)C(C)(C)NP(=O)(CO[C@H](C)Cn2cnc3c(N)ncnc32)NC(C)(C)C(=O)O[C@H]2CC[C@H](CCC)CC2)CC1` [Example 27] came in with a CC50 at 5 days in data set [2] of more than 0.1 µM. Moreover, the kinetic solubility at 24 h in data set [3] was 1 µg/mL (≈ 1.42 µM).

In data set [2], `CCCCCCCCCCCC(=O)Nc1ncnc2c1ncn2C[C@@H](C)OCP(=O)(NC(C)(C)C(=O)OCCCCCC)NC(C)(C)C(=O)OCCCCCC` [Example 30, Dihexyl 2,2′-(((((1-(6-dodecanamido-9H-purin-9-yl)propan-2-yl)oxy)methyl)phosphoryl)bis(azanediyl))(R)-bis(2-methylpropanoate)] gave a CC50 at 5 days of more than 0.1 µM. The solubility (kinetic) at 24 h in data set [3] was less than 1 µg/mL.

Consider `CCCCCCOC(=O)C(C)(C)NP(=O)(CO[C@H](C)Cn1cnc2c(NC(=O)OCCC)ncnc21)NC(C)(C)C(=O)OCCCCCC` [Example 31, Dihexyl 2,2′-(((((1-(6-((propoxycarbonyl)amino)-9H-purin-9-yl)propan-2-yl)oxy)methyl)phosphoryl)bis(azanediyl))(R)-bis(2-methylpropanoate)], for which the CC50 at 5 days in data set [1] is 9.01 µM; in data set [2], more than 0.1 µM. Besides, the solubility (kinetic) at 24 h in data set [3] was found to be 12 µg/mL (≈ 16.9 µM).

Consider `C[C@H](Cn1cnc2c(N)ncnc21)OCP(=O)(NC(C)(C)C(=O)OC1CCC2(CCCC2)CC1)NC(C)(C)C(=O)OC1CCC2(CCCC2)CC1` (stereo partly drawn) [Example 61, Di(spiro[4.5]decan-8-yl) 2,2′-(((((1-(6-amino-9H-purin-9-yl)propan-2-yl)oxy)methyl)phosphoryl)bis(azanediyl))(R)-bis(2-methylpropanoate)], for which the CC50 at 5 days in data set [1] was 6 µM; in data set [2] it was more than 0.1 µM. The molecule also showed a solubility (kinetic) at 24 h in data set [3] of less than 1 µg/mL.

Regarding `C[C@H](Cn1cnc2c(N)ncnc21)OCP(=O)(NC(C)(C)C(=O)OCCC12CC(C1)C2)NC(C)(C)C(=O)OCCC12CC(C1)C2` [Example 62, Bis(2-(bicyclo[1.1.1]pentan-1-yl)ethyl) 2,2′-(((((1-(6-amino-9H-purin-9-yl)propan-2-yl)oxy)methyl)phosphoryl)bis(azanediyl))(R)-bis(2-methylpropanoate)], the CC50 at 5 days in data set [1] was 3.19 µM; in data set [2] it was more than 0.1 µM. In data set [3], this molecule registered a solubility (kinetic) at 24 h of less than 1 µg/mL.

As to `CCCCCCOC(=O)C(CC)(CC)NP(=O)(CO[C@H](C)Cn1cnc2c(N)ncnc21)NC(CC)(CC)C(=O)OCCCCCC` [Example 65, Dihexyl 2,2′-(((((1-(6-amino-9H-purin-9-yl)propan-2-yl)oxy)methyl)phosphoryl)bis(azanediyl))(R)-bis(2-ethylbutanoate)], the values for the CC50 at 5 days in data set [1] and in data set [2] were 6.71 µM and more than 0.1 µM, respectively.

Consider `CCCCCCCOC(=O)C(C)(C)NP(=O)(CO[C@H](C)Cn1cnc2c(N)ncnc21)NC(C)(C)C(=O)OCCCCCCC` [Example 66, Diheptyl 2,2′-(((((1-(6-amino-9H-purin-9-yl)propan-2-yl)oxy)methyl)phosphoryl)bis(azanediyl))(R)-bis(2-methylpropanoate)], for which the CC50 at 5 days in data set [1] is 4.77 µM; in data set [2], more than 0.1 µM.

On to `CCCCCCOC(=O)C(C)(C)NP(=O)(CO[C@H](C)Cn1cnc2c(N)ncnc21)NC(C)(C)C(=O)OCC12CC(C1)C2` (stereo partly drawn) [Example 77, Bicyclo[1.1.1]pentan-1-ylmethyl 2-((((((R)-1-(6-amino-9H-purin-9-yl)propan-2-yl)oxy)methyl)((1-(hexyloxy)-2-methyl-1-oxopropan-2-yl)amino)phosphoryl)amino)-2-methylpropanoate], for which the values for the CC50 at 5 days in data set [1] and in data set [2] were more than 50 µM and more than 0.1 µM, respectively. In data set [3], this molecule registered a solubility (kinetic) at 24 h of 57 µg/mL (≈ 91.7 µM).

`C[C@H](Cn1cnc2c(N)ncnc21)OCP(=O)(NC(C)(C)C(=O)OCC12CCC(CC1)C2)NC(C)(C)C(=O)OCC12CCC(CC1)C2` [Example 87, Bis(bicyclo[2.2.1]heptan-1-ylmethyl) 2,2′-(((((1-(6-amino-9H-purin-9-yl)propan-2-yl)oxy)methyl)phosphoryl)bis(azanediyl))(R)-bis(2-methylpropanoate)]: the CC50 at 5 days was 5.05 µM in data set [1] and more than 0.1 µM in data set [2]. Further, the solubility (kinetic) at 24 h in data set [3] is less than 1 µg/mL.

Turning to `CCCCCCOC(=O)C(C)(C)NP(=O)(CO[C@H](C)Cn1cnc2c(NC(=O)OCCOC(=O)c3ccccc3)ncnc21)NC(C)(C)C(=O)OCCCCCC` [Example 94, Dihexyl 2,2′-(((((1-(6-(((2-(benzoyloxy)ethoxy)carbonyl)amino)-9H-purin-9-yl)propan-2-yl)oxy)methyl)phosphoryl)bis(azanediyl))(R)-bis(2-methylpropanoate)], the cytotoxic concentration (CC50) at 5 days is 8.22 µM in data set [1] and more than 0.1 µM in data set [2]. In data set [3], the kinetic solubility at 24 h stood at 2 µg/mL (≈ 2.45 µM).

As to `CCCCCCOC(=O)C(C)(C)NP(=O)(CO[C@H](C)Cn1cnc2c(NC(=O)[C@H]3CCC(=O)O3)ncnc21)NC(C)(C)C(=O)OCCCCCC` [Example 96, Dihexyl 2,2′-((((((R)-1-(6-((R)-5-oxotetrahydrofuran-2-carboxamido)-9H-purin-9-yl)propan-2-yl)oxy)methyl)phosphoryl)bis(azanediyl))bis(2-methylpropanoate)], the half-maximal cytotoxic concentration (CC50) at 5 days in data set [1] was determined as 11 µM. This molecule showed a solubility (kinetic) at 24 h in data set [3] of 92 µg/mL (≈ 125 µM).

Regarding `CCCCCCOC(=O)C(C)(C)NP(=O)(CO[C@H](C)Cn1cnc2c(NC(=O)OCC(C)(C)C(=O)OCc3oc(=O)oc3C)ncnc21)NC(C)(C)C(=O)OCCCCCC` [Example 98, Dihexyl 2,2′-(((((1-(6-(((2,2-dimethyl-3-((5-methyl-2-oxo-1,3-dioxol-4-yl)methoxy)-3-oxopropoxy)carbonyl)amino)-9H-purin-9-yl)propan-2-yl)oxy)methyl)phosphoryl)bis(azanediyl))(R)-bis(2-methylpropanoate)], the CC50 at 5 days in data set [1] worked out at 24.5 µM. This molecule returned a kinetic solubility at 24 h in data set [3] of 7 µg/mL (≈ 7.94 µM).

On to `CCCCCCOC(=O)C(C)(C)NP(=O)(CO[C@H](C)Cn1cnc2c(NC(=O)CCCC(=O)OCc3oc(=O)oc3C)ncnc21)NC(C)(C)C(=O)OCCCCCC` [Example 99, (5-Methyl-2-oxo-1,3-dioxol-4-yl)methyl 5-[[9-[(2R)-2-[bis[(2-hexoxy-1,1-dimethyl-2-oxo-ethyl)amino]phosphorylmethoxy]propyl]purin-6-yl]amino]-5-oxo-pentanoate], for which the CC50 at 5 days in data set [1] is 17.2 µM. Also, in data set [3], the solubility (kinetic) at 24 h turned out to be 25 µg/mL (≈ 29.3 µM).

As to `CCCCCCOC(=O)C(C)(C)NP(=O)(CO[C@H](C)Cn1cnc2c(NC(=O)OC(C)(C)CC(=O)OCc3oc(=O)oc3C)ncnc21)NC(C)(C)C(=O)OCCCCCC` [Example 101, Dihexyl 2,2′-(((((1-(6-((((2-methyl-4-((5-methyl-2-oxo-1,3-dioxol-4-yl)methoxy)-4-oxobutan-2-yl)oxy)carbonyl)amino)-9H-purin-9-yl)propan-2-yl)oxy)methyl)phosphoryl)bis(azanediyl))(R)-bis(2-methylpropanoate)], in data set [1], the CC50 at 5 days came to 7.68 µM. Also, the solubility (kinetic) at 24 h in data set [3] was found to be 23 µg/mL (≈ 26.1 µM).
